Test results: the CheMixHub viscosity set

Experiment: xn = mol fraction of the nth substance listed

Nc1ccccc1 + CN1CCCC1=O
viscosity [mPa·s], 101 kPa
Conditions	x2 = 0.0954	x2 = 0.1918	x2 = 0.2892	x2 = 0.3876	x2 = 0.487	x2 = 0.5875	x2 = 0.689	x2 = 0.7915	x2 = 0.8952
303.15 K	2.963	2.89	2.81	2.705	2.55	2.34	2.15	1.964	1.76
308.15 K	2.57	2.51	2.445	2.34	2.187	2.035	1.875	1.736	1.571
313.15 K	2.25	2.2	2.13	2.05	1.95	1.83	1.7	1.58	1.445
318.15 K	1.99	1.94	1.89	1.825	1.735	1.623	1.52	1.417	1.309

COCCOCCOCCOC + CCCCCCO
101 kPa
Conditions	viscosity [mPa·s]
293.15 K, x1 = 0.04492	4.503
293.15 K, x1 = 0.09537	3.827
293.15 K, x1 = 0.1973	3.104
293.15 K, x1 = 0.2976	2.686
293.15 K, x1 = 0.4067	2.427
293.15 K, x1 = 0.5095	2.269
293.15 K, x1 = 0.6012	2.199
293.15 K, x1 = 0.6895	2.144
293.15 K, x1 = 0.7928	2.134
293.15 K, x1 = 0.8972	2.135
293.15 K, x1 = 0.9607	2.158
303.15 K, x1 = 0.04662	3.285
303.15 K, x1 = 0.09419	2.854
303.15 K, x1 = 0.2001	2.327
303.15 K, x1 = 0.2995	2.056
303.15 K, x1 = 0.4075	1.869
303.15 K, x1 = 0.5134	1.747
303.15 K, x1 = 0.5831	1.711
303.15 K, x1 = 0.6929	1.697
303.15 K, x1 = 0.7889	1.712
303.15 K, x1 = 0.9161	1.735
303.15 K, x1 = 0.9401	1.753
313.15 K, x1 = 0.04436	2.565
313.15 K, x1 = 0.09283	2.292
313.15 K, x1 = 0.2014	1.894
313.15 K, x1 = 0.2982	1.701
313.15 K, x1 = 0.41	1.56
313.15 K, x1 = 0.5102	1.491
313.15 K, x1 = 0.601	1.454
313.15 K, x1 = 0.6974	1.435
313.15 K, x1 = 0.8008	1.435
313.15 K, x1 = 0.8996	1.453
313.15 K, x1 = 0.9626	1.462

CCCCOC(=O)c1ccccc1 + CC#N
viscosity [mPa·s], 101.33 kPa
Conditions	x1 = 0.125	x1 = 0.244	x1 = 0.355	x1 = 0.463	x1 = 0.563	x1 = 0.654	x1 = 0.75	x1 = 0.83	x1 = 0.919
293.15 K	0.446	0.486	0.533	0.629	0.762	0.956	1.173	1.57	2.131
303.15 K	0.402	0.434	0.472	0.551	0.655	0.808	0.979	1.27	1.69
313.15 K	0.364	0.392	0.424	0.483	0.567	0.696	0.825	1.056	1.368
323.15 K	0.313	0.352	0.382	0.43	0.461	0.603	0.667	0.9	1.119

CCC(O)CO (stereo not drawn) + O=C1CCCN1
101.33 kPa
Conditions	viscosity [mPa·s]
298.15 K, x2 = 0.0555	46.5
298.15 K, x2 = 0.09272	42.92
298.15 K, x2 = 0.2043	34.62
298.15 K, x2 = 0.2943	29.84
298.15 K, x2 = 0.4023	25.54
298.15 K, x2 = 0.508	22.41
298.15 K, x2 = 0.6045	20.25
298.15 K, x2 = 0.6902	18.59
298.15 K, x2 = 0.7968	16.74
298.15 K, x2 = 0.8891	15.2
298.15 K, x2 = 0.9416	14.65
308.15 K, x2 = 0.04722	26.34
308.15 K, x2 = 0.1008	23.83
308.15 K, x2 = 0.2171	19.71
308.15 K, x2 = 0.2992	17.63
308.15 K, x2 = 0.6065	12.84
308.15 K, x2 = 0.6909	11.99
308.15 K, x2 = 0.8019	10.94
308.15 K, x2 = 0.886	10.18
308.15 K, x2 = 0.9402	9.675
318.15 K, x2 = 0.04672	15.75
318.15 K, x2 = 0.07619	15.07
318.15 K, x2 = 0.2048	12.57
318.15 K, x2 = 0.289	11.39
318.15 K, x2 = 0.4043	10.2
318.15 K, x2 = 0.4992	9.411
318.15 K, x2 = 0.6031	8.699
318.15 K, x2 = 0.6923	8.26
318.15 K, x2 = 0.7988	7.666
318.15 K, x2 = 0.8817	7.237
318.15 K, x2 = 0.9477	6.892

COCCOCCOCCO + CN(CCO)CCO
viscosity [mPa·s], 101.33 kPa
Conditions	x2 = 0.1004	x2 = 0.2133	x2 = 0.2964	x2 = 0.3993	x2 = 0.4991	x2 = 0.5993	x2 = 0.7001	x2 = 0.8006	x2 = 0.9002
298.15 K	6.741	8.012	9.103	10.85	13.35	17.08	22.81	31.15	50.17
313.15 K	4.491	5.038	5.882	6.508	7.732	9.412	12.03	15.99	22.23
323.15 K	3.445	3.861	4.307	4.93	5.674	6.845	8.383	10.78	14.36
